Test results published in US8569372B2, “Method for preventing or treating a disease, disorder or condition induced by retina ischemia” (priority 2011, dated 2013).

Assays:
HIF-1 Alpha mRNA = assay: Real-time PCR of retinal mRNA after ischaemia/reperfusion: HIF-1 Alpha; type: in vivo, Wistar rats; conditions: 100 μM SAC pre-treatment, 24 hours after I/R; control 0.56±0.15, vehicle 1.23±0.23; n=6
Description: (§1) The rats (200-250 g) were anaesthetized and placed in a stereotaxic frame. The anterior chamber of one eye was cannulated with a 30-gauge needle connected to a 0.9% saline reservoir; this caused a high IOP (HIOP) of 120 mmHg for 60 minutes. Eye fundus whitening and a low ERG response confirmed induction of an ischaemic insult. A sham procedure was carried out on the controls. Drug administration involved the pre-administration (15-minute before 60-minute HIOP induced retinal ischaemia) of SAC (25, 50, 100 μM) or vehicle (saline; control). The ischemic eye of each test rat was treated with or without a single intravitreous injection of 5 μl of the test compound. […] The levels of Thy-1, HIF-1 Alpha, VEGF and MMP-9 mRNAs present in the retinas were determined using a real-time PCR technique. […] Relative quantification (a comparative method) was performed using the house keeping gene Beta-actin as the internal standard. This process allows the normalized quantification of the mRNA target (Ct) and takes into account the differences in the amount of total RNA added to each reaction (ΔCt). The relative HIF-1 Alpha/VEGF/MMP-9 expression changes were calculated as fold changes relative to the control with respect to the calibrator (ΔΔCt), which was represented by the control retina. […] The data obtained for each treatment were pooled, and a total percentage change relative to the control was calculated. […]

VEGF mRNA = assay: Real-time PCR of retinal mRNA after ischaemia/reperfusion: VEGF; type: in vivo, Wistar rats; conditions: 100 μM SAC pre-treatment, 24 hours after I/R; control 0.36±0.07, vehicle 1.10±0.20; n=6
Description: as §1

MMP-9 mRNA = assay: Real-time PCR of retinal mRNA after ischaemia/reperfusion: MMP-9; type: in vivo, Wistar rats; conditions: 100 μM SAC pre-treatment, 24 hours after I/R; control 0.46±0.15, vehicle 1.97±0.38; n=6
Description: as §1

RGC-5 cells = assay: RGC-5 cell viability under H2O2 induced oxidative stress; type: cell-based; conditions: RGC5, then 500 μM H2O2 24 hours, H2O2 alone 42.05±6.10%, n=6, read-out: RGC-5 cell viability (control: 100%)
Description: The RGC-5 cell line was obtained from the American Type Culture Collection (ATCC, No. CRL-2302, Manassas, Va., USA). The RGC-5 cell line represents a lineage of neuronal precursor cells. The RGC-5 cells were maintained in Dulbecco's modified Eagle's medium (DMEM; Falcon, Becton Dickinson, N.J., U.S.A.) containing 10% fetal calf serum, 100 U/mL penicillin and 100 μg/mL streptomycin (Sigma-Aldrich) in a humidified atmosphere of 95% air and 5% CO2 at 37° C. Cell viability was evaluated by counting the cell number using a haemocytometer under an optical microscope.
In the enzyme-linked immunosorbent assay (ELISA), the cells (2.5×10^4 in each well) were plated into 96-well plates. Each well contains 200 μl of DMEM (control) without or with H2O2. Next, the cells were incubated at 37° C. for 1 day and then shifted to serum free medium for the following day. In order to stimulate oxidative stress, 500 μM H2O2 (Sigma-Aldrich 18304/k0250, St Louis, Mo., USA) was then added for 24 hours as described elsewhere. Depending on the experimental protocol, SAC or vehicle was added to some samples 15 minutes before adding H2O2.

Question: Which results are given for C=CCSC[C@H](N)C(=O)O [SAC, S-allyl L-cysteine]?
Answer: HIF-1 Alpha mRNA ratio in the retina (HIF-1 Alpha mRNA): 0.76±0.09; VEGF mRNA ratio in the retina (VEGF mRNA): 0.50±0.06; MMP-9 mRNA ratio in the retina (MMP-9 mRNA): 0.41±0.15; viability at 25 µM (RGC-5 cells; 25 μM SAC 15-minute pre-incubation): 47.7 ± 4.53%; viability at 50 µM (RGC-5 cells; 50 μM SAC 15-minute pre-incubation): 57.5 ± 3.48%; viability at 100 µM (RGC-5 cells; 100 μM SAC 15-minute pre-incubation): 70.2 ± 3.32%
